In patent US10988459B2 (priority 2015, dated 2021):

The molecules below were run against human RIP1 kinase domain (2-375) (Homo sapiens (Human), UniProt Q13546) (assay: biochemical). Settings: Table 1; apparent Ki (Morrison tight-binding fit); 50 nM RIP1 kinase domain, 50 uM ATP, 2 hours incubation; read-out: RIP1 Ki.
Assay type: biochemical
Summary of the method: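 Ki^app comes from Morrison tight-binding fits of fractional activity versus compound concentration. Activity was read as ADP production, via tracer displacement lowering fluorescence polarization (633 nm laser). Conditions: 2 h, 50 nM insect-cell-expressed enzyme, 50 uM ATP, 30 mM MgCl2, 1 mM DTT, 0.5% DMSO, pH 7.5 Hepes.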

Chain of human RIP1 kinase domain (2-375) (Q13546 2-375): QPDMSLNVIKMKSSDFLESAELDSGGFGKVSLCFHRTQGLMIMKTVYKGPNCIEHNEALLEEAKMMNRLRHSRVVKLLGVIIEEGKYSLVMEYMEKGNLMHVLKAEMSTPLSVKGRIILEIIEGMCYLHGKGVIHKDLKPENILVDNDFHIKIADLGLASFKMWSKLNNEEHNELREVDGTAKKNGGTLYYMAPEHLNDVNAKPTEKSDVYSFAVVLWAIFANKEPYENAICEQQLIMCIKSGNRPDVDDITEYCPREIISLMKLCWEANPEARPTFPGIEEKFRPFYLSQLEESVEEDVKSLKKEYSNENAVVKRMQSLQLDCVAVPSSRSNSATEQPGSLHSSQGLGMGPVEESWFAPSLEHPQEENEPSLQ

SMILES	Ki
CN1C(=O)[C@@H](NC(=O)c2n[nH]c3c2CCCCC3)COc2ccccc21 [Example 44, (S)-N-(5-methyl-4-oxo-2,3,4,5-tetrahydrobenzo[b][1,4]oxazepin-3-yl)-1,4,5,6,7,8-hexahydrocyclohepta[c]pyrazole-3-carboxamide]	3000 nM
CN1C(=O)[C@@H](NC(=O)c2n[nH]c3c2CC(c2ccccc2)CC3)COc2ccccc21 (stereo partly drawn) [Example 24, N—((S)-5-methyl-4-oxo-2,3,4,5-tetrahydrobenzo[b][1,4]oxazepin-3-yl)-5-phenyl-4,5,6,7-tetrahydro-1H-indazole-3-carboxamide]	27.9 nM

Same assay, conditions: Table 5; apparent Ki (Morrison tight-binding fit); 50 nM RIP1 kinase domain, 50 uM ATP, 2 hours incubation; read-out: Ki

SMILES	Ki
CN1C(=O)[C@@H](NC(=O)c2cc3c(Br)cccc3cn2)CCn2nccc21 (racemic) [Example 700, 5-bromo-N-[rac-(6S)-4-methyl-5-oxo-7,8-dihydro-6H-pyrazolo[1,5-a][1,3]diazepin-6-yl]isoquinoline-3-carboxamide]	448 nM
CN1C(=O)[C@@H](NC(=O)c2ncc3c(n2)[C@](C)(C(F)(F)F)OC3)COc2ccccc21 [Example 745, (7R)-7-methyl-N-[(3S)-5-methyl-4-oxo-2,3-dihydro-1,5-benzoxazepin-3-yl]-7-(trifluoromethyl)-5H-furo[3,4-d]pyrimidine-2-carboxamide]	12 nM

Next, values leading:

Ki	SMILES
189 nM	CN1C(=O)[C@@H](NC(=O)c2ncn(Cc3ccccc3F)n2)CCn2nc(CCN3CC(F)(F)C3)cc21 [Example 773, 1-[(2-fluorophenyl)methyl]-N-[(6S)-2-[2-(3,3-difluoroazetidin-1-yl)ethyl]-4-methyl-5-oxo-7,8-dihydro-6H-pyrazolo[1,5-a][1,3]diazepin-6-yl]-1,2,4-triazole-3-carboxamide]
24 nM	CN1C(=O)[C@@H](NC(=O)c2ncn(Cc3ccccc3)n2)CCn2nc(C3CN(C(=O)OC(C)(C)C)C3)cc21 [Example 759]
74 nM	CN1C(=O)[C@@H](NC(=O)c2ncn(Cc3ccccc3F)n2)CCn2nc(CCN3CCOCC3)cc21 [Example 753]

Same assay, conditions: human RIP1 kinase domain (2-375), 50 uM ATP, 2 hours incubation, Transcreener ADP assay; read-out: RIP1 Ki

SMILES	Ki
CN1C(=O)C(NC(=O)c2ncn(Cc3ccccc3)n2)CCCn2cncc21 (stereo not drawn) [Example 103, 1-benzyl-N-(1-methyl-2-oxo-1,2,3,4,5,6-hexahydroimidazo[1,5-a][1,3]diazocin-3-yl)-1H-1,2,4-triazole-3-carboxamide]	124 nM
CN1C(=O)[C@@H](NC(=O)c2ncn(Cc3ccccc3)n2)CCn2nc(C3CC3)cc21 [Example 171, (S)-1-benzyl-N-(2-cyclopropyl-4-methyl-5-oxo-5,6,7,8-tetrahydro-4H-pyrazolo[1,5-a][1,3]diazepin-6-yl)-1H-1,2,4-triazole-3-carboxamide]	16.2 nM
Cc1cc2n(n1)CC[C@H](NC(=O)c1ncn([C@@H](C)c3ccccc3)n1)C(=O)N2C [Example 165, N-((S)-2,4-dimethyl-5-oxo-5,6,7,8-tetrahydro-4H-pyrazolo[1,5-a][1,3]diazepin-6-yl)-1-((S)-1-phenylethyl)-1H-1,2,4-triazole-3-carboxamide]	47.4 nM
CN1C(=O)C(NC(=O)c2ncn(Cc3ccccc3)n2)CCn2nc(C3CC3(F)F)cc21 (stereo not drawn) [Example 134, 1-benzyl-N-(2-(2,2-difluorocyclopropyl)-4-methyl-5-oxo-5,6,7,8-tetrahydr-4H-pyrazolo[1,5-a][1,3]diazepin-6-yl)-1H-1,2,4-triazole-3-carboxamide]	73.6 nM
CN1C(=O)C(NC(=O)c2nnc(Cc3ccccc3)[nH]2)CCCn2nc(C3CC3)cc21 (stereo not drawn) [Example 105, 5-benzyl-N-(2-cyclopropyl-4-methyl-5-oxo-4,5,6,7,8,9-hexahydropyrazolo[1,5-a][1,3]diazocin-6-yl)-4H-1,2,4-triazole-3-carboxamide]	262 nM

Same assay, conditions: human RIP1 kinase domain (2-375), Transcreener ADP assay, 50 uM ATP, 2 hours incubation; read-out: RIP1 Ki

SMILES	Ki
CCC1(C)OCc2cnc(C(=O)N[C@H]3COc4ccccc4N(C)C3=O)nc21 (stereo partly drawn) [Example 310, 7-ethyl-7-methyl-N—((S)-5-methyl-4-oxo-2,3,4,5-tetrahydrobenzo[b][1,4]oxazepin-3-yl)-5,7-dihydrofuro[3,4-d]pyrimidine-2-carboxamide]	37.2 nM
CCCC1(C)OCc2cnc(C(=O)N[C@H]3COc4ccccc4N(C)C3=O)nc21 (stereo partly drawn) [Example 309, 7-methyl-N—((S)-5-methyl-4-oxo-2,3,4,5-tetrahydrobenzo[b][1,4]oxazepin-3-yl)-7-propyl-5,7-dihydrofuro[3,4-d]pyrimidine-2-carboxamide]	52.8 nM
CN1C(=O)[C@@H](NC(=O)c2ncn(Cc3c(F)cccc3F)n2)CCn2nc(C3CC3)cc21 [Example 302, (S)—N-(2-cyclopropyl-4-methyl-5-oxo-5,6,7,8-tetrahydro-4H-pyrazolo[1,5-a][1,3]diazepin-6-yl)-1-(2,6-difluorobenzyl)-1H-1,2,4-triazole-3-carboxamide]	26.8 nM
Cc1nn2c(c1C)N(C)C(=O)[C@@H](NC(=O)c1ncn(Cc3ccc(F)cc3)n1)CC2 [Example 281, (S)-1-(4-fluorobenzyl)-N-(2,3,4-trimethyl-5-oxo-5,6,7,8-tetrahydro-4H-pyrazolo[1,5-a][1, 3]diazepin-6-yl)-1H-1,2,4-triazole-3-carboxamide]	38.7 nM
CC[C@@]1(C)OCc2cnc(C(=O)NC3CCn4cncc4N(C)C3=O)cc21 (stereo partly drawn) [Example 294, (1R)-1-ethyl-1-methyl-N-(1-methyl-2-oxo-2,3,4,5-tetrahydro-1H-imidazo[1,5-a][1,3]diazepin-3-yl)-1,3-dihydrofuro[3,4-c]pyridine-6-carboxamide]	557 nM

Same assay, conditions: scale-up batches (Examples A-C); apparent Ki (Morrison tight-binding fit); 50 nM RIP1 kinase domain, 50 uM ATP; read-out: Ki

SMILES	Ki
CN1C(=O)[C@@H](NC(=O)c2ncn(Cc3ccccc3)n2)CCn2nccc21 [Example B]	13 nM

Same assay, conditions: tight-binding apparent inhibition constant; human RIP1 kinase domain (2-375) 50 nM, 50 uM ATP, 2 hours; read-out: Ki

SMILES	Ki
CN1C(=O)[C@@H](NC(=O)c2nc3cccc(-c4ccccc4)n3n2)COc2ccccc21 [Example 373, (S)—N-(5-methyl-4-oxo-2,3,4,5-tetrahydrobenzo[b][1,4]oxazepin-3-yl)-5-phenyl-[1,2,4]triazolo[1,5-a]pyridine-2-carboxamide]	4.3 nM
CN1C(=O)[C@@H](NC(=O)c2nc3cccc(-c4cnn(C)c4)n3n2)COc2ccccc21 [Example 398, (S)-5-(1-methyl-1H-pyrazol-4-yl)-N-(5-methyl-4-oxo-2,3,4,5-tetrahydrobenzo[b][1,4]oxazepin-3-yl)-[1,2,4]triazolo[1,5-a]pyridine-2-carboxamide]	36 nM
Cc1cc2n(n1)CC[C@H](NC(=O)c1ncn(CC3CCC(F)(F)C3)n1)C(=O)N2C (stereo partly drawn) [Example 569, 1-[(3,3-difluorocyclopentyl)methyl]-N-(6S)-2,4-dimethyl-5-oxo-7,8-dihydro-6H-pyrazolo[1,5-a][1,3]diazepin-6-yl-1,2,4-triazole-3-carboxamide]	580 nM
CC[C@H]1C[C@H](Cn2cnc(C(=O)N[C@H]3CCn4nc(C)cc4N(C)C3=O)n2)C1 [Example 501, N—((S)-2,4-dimethyl-5-oxo-5,6,7,8-tetrahydro-4H-pyrazolo[1,5-a][1,3]diazepin-6-yl)-1-(((1S,3S)-3-ethylcyclobutyl)methyl)-1H-1,2,4-triazole-3-carboxamide]	67 nM

More lines, now with the values ahead:

Ki	SMILES
355 nM	CN1C(=O)C(NC(=O)c2ncn(Cc3ccccc3)n2)CCn2nc(CN3CC(F)C3)cc21 (single isomer, unassigned) [Example 450, 1-benzyl-N-(2-((3-fluoroazetidin-1-yl)methyl)-4-methyl-5-oxo-5,6,7,8-tetrahydro-4H-pyrazolo[1,5-a][1,3]diazepin-6-yl)-1H-1,2,4-triazole-3-carboxamide]
450 nM	CN1C(=O)[C@@H](NC(=O)c2ncn(Cc3ccccc3)n2)CC[C@@H]2[C@H]1C2(F)F (single isomer, unassigned) [Example 364]
46 nM	CN1C(=O)C(NC(=O)c2ncn(Cc3ccccc3)n2)CCn2nc(C3CCC3)cc21 (stereo not drawn) [Example 454, 1-Benzyl-N-(2-cyclobutyl-4-methyl-5-oxo-5,6,7,8-tetrahydro-4H-pyrazolo[1,5-a][13]diazepin-6-yl)-1H-1,2,4-triazole-3-carboxamide]
444 nM	COC1CN(Cc2cc3n(n2)CCC(NC(=O)c2ncn(Cc4ccccc4)n2)C(=O)N3C)C1 (single isomer, unassigned) [Example 451, 1-benzyl-N-(2-((3-methoxyazetidin-1-yl)methyl)-4-methyl-5-oxo-5,6,7,8-tetrahydro-4H-pyrazolo[1,5-a][1,3]diazepin-6-yl)-1H-1,2,4-triazole-3-carboxamide]
10 nM	CC(C)c1cc2n(n1)CC[C@H](NC(=O)c1ncn(Cc3ccccc3)n1)C(=O)N2C [Example 458, (S)-1-Benzyl-N-(2-isopropyl-4-methyl-5-oxo-5,6,7,8-tetrahydro-4H-pyrazolo[1,5-a][1,3]diazepin-6-yl)-1H-1,2,4-triazole-3-carboxamide]
17.3 nM	CC(=O)c1cc2n(n1)CC[C@H](NC(=O)c1ncn(Cc3ccccc3)n1)C(=O)N2C [Example 366, (S)—N-(2-acetyl-4-methyl-5-oxo-5,6,7,8-tetrahydro-4H-pyrazolo[1,5-a][1,3]diazepin-6-yl)-1-benzyl-1H-1,2,4-triazole-3-carboxamide]
7.5 nM	Cc1cc2n(n1)CC[C@H](NC(=O)c1ncn(Cc3ccccc3F)n1)C(=O)N2C [Example 518, 1-[(2-fluorophenyl)methyl]-N-(6S)-2,4-dimethyl-5-oxo-7,8-dihydro-6H-pyrazolo[1,5-a][1,3]diazepin-6-yl-1,2,4-triazole-3-carboxamide]
870 nM	Cc1cc2n(n1)CC[C@H](NC(=O)c1ncn(C[C@H]3C[C@@H](C)C3)n1)C(=O)N2C [Example 499, N—((S)-2,4-dimethyl-5-oxo-5,6,7,8-tetrahydro-4H-pyrazolo[1,5-a][1,3]diazepin-6-yl)-1-(((1R,3S)-3-methylcyclobutyl)methyl)-1H-1,2,4-triazole-3-carboxamide]
